How the values were obtained:
Male Sprague Dawley rats = assay: Induction of PAH by MCT after sham surgery or pneumonectomy in young rats; type: in vivo, rat; conditions: for pulmonary pressure (RVSP, mean PA): FIG. 1
Method: All animal studies were approved by the IACUC at the University of Rochester prior to the initiation of any animal experiments. Male Sprague Dawley rats weighing between 200 and 250 g were shaved and then endotracheally intubated with an 18 G angiocatheter after anesthesia with ketamine and xylazine (70 mg/kg ketamine and 50 mg/kg xylazine delivered intraperitoneal in 0.9% saline). Flunixin was administered 0.1 mg/kg SQ at the beginning of the case to provide 24 hours postoperative analgesia. Animals were ventilated (respiratory rate 70-90, adjusted while monitoring the animal to prevent spontaneous respiratory effort) at 10-12 cc/kg (Harvard Apparatus) and the left chest was prepared with Betadine scrub. The fourth or fifth intercostal space was identified, and an incision was made with care to avoid lung damage while ventilation was briefly interrupted. A rib retractor was used to expose the thoracic cavity, and the lung was lifted gently to expose the hilar structures. Two ligaclips (Ektacon LS200, Johnson & Johnson) were applied proximally before the left lung was cut at the distal hilar structure. A polyethylene tube with holes at the end and cut into the sides was inserted through the sixth intercostal space and laid in the thoracic cavity where the left lung had been. Two absorbable sutures were used to approximate the ribs, and then the muscles and subcutaneous tissue were approximated with an additional layer of sutures. Care was taken to carefully seal the thoracostomy tube with tissue so that the hole would close spontaneously when the thoracostomy tube was removed. Suction was applied to the tubing at the earliest possible time once a seal had been achieved (sometimes before the subcutaneous tissues were closed). Antisedan (Orion) was administered 0.2 mg/kg IM, and the skin was closed with 9 mm Autoclips (Stoelting). The animal was taken off the ventilator and monitored for spontaneous respirations while suction was applied to the thoracostomy tube. The rat was required to make significant respiratory effort and begin to right itself on the table before the endotracheal and thoracostomy tubes were removed. […] A 30 to 40% mortality is routinely encountered in the 24 hour perioperative period. For the sham surgery, an incision was made to the chest wall. With great care, ventilation was stopped, the chest was listed with forceps, and a small incision was made in the fourth or fifth intercostal space. If there was any evidence for lung damage, the case was converted to a pneumonectomy. A smaller polyethylene tube was inserted through the same hole and laid between the lung and the chest wall. The ribs were approximated with one or two sutures as appropriate. The remainder of the procedure was identical. The animal was ventilated for several minutes after the chest was closed but before sedation was reversed to make sure that total time under anesthesia was approximately the same as in pneumonectomy cases.
(§1) One week later, animals were given MCT (dissolved 60 mg/ml in DMSO) as a subcutaneous injection (vehicle animals were treated with the same volume of DMSO alone). They were monitored and allowed ordinary chow and water for 28 days (in the group of animals which were utilized to generate FIG. 2, two of the animals initially treated with pneumonectomy and MCT died spontaneously on days 18 and 23, so the remaining four animals were sacrificed at Day 24).
Exercise capacity was monitored 5 and 10 days after MCT treatment and then more frequently as the disease progressed. Rats were placed on a treadmill (Columbus Instruments) that stimulates them with a mild electric shock when they fail to run. Each assessment lasted for 16 min: 2 min. @ 10 m/min, 4 min @ 15 m/min, 5 min @ 20 m/min, and 5 min @ 25 m/min. The maximum distance run was 305 m. This procedure has been specifically approved by the local IACUC.
Initially, a grid intensity of 70% maximum and frequency of 2 Hz was used. […]

[1] = tested on: Pneum/MCT rats (rat model of severe pulmonary arterial hypertension); assay: Treatment of PAH in pneumonectomy + MCT young rat model; type: in vivo; conditions: bosentan 100 mg/kg daily
Method: All animal studies were approved by the IACUC at the University of Rochester prior to the initiation of any animal experiments. Male Sprague Dawley rats weighing between 200 and 250 g were shaved and then endotracheally intubated with an 18 G angiocatheter after anesthesia with ketamine and xylazine (70 mg/kg ketamine and 50 mg/kg xylazine delivered intraperitoneal in 0.9% saline). Flunixin was administered 0.1 mg/kg SQ at the beginning of the case to provide 24 hours postoperative analgesia. […] The animal was taken off the ventilator and monitored for spontaneous respirations while suction was applied to the thoracostomy tube. […]
as §1
Exercise capacity was monitored 5 and 10 days after MCT treatment and then more frequently as the disease progressed. […]

[2] = tested on: patients with pulmonary hypertension; conditions: cited from earlier work

C[C@H]1C(=O)O[C@@H]2CCN3CC=C(COC(=O)[C@](C)(O)[C@]1(C)O)[C@H]23 [MCT, monocrotaline]
(RV + S)/LV (Male Sprague Dawley rats; MCT after pneumonectomy): 1.8 ± 0.6
(RV + S)/Weight (Male Sprague Dawley rats; MCT after pneumonectomy): 2.7 ± 0.3
LV/Weight (Male Sprague Dawley rats; MCT after pneumonectomy): 1.6 ± 0.5
pulmonary pressure (RVSP, mean PA) (Male Sprague Dawley rats; MCT after pneumonectomy): near systemic elevations in pulmonary pressure
(RV + S)/LV (Male Sprague Dawley rats; MCT after sham surgery): 1.20 ± 0.3
(RV + S)/Weight (Male Sprague Dawley rats; MCT after sham surgery): 1.9 ± 0.4
LV/Weight (Male Sprague Dawley rats; MCT after sham surgery): 1.6 ± 0.2
pulmonary pressure (RVSP, mean PA) (Male Sprague Dawley rats; MCT following sham surgery): modest PAH
exercise capacity (16 min treadmill protocol) (Male Sprague Dawley rats; Pneum/MCT rats, by day 17 after MCT): unable to complete the 16 min protocol
exercise capacity (16 min treadmill protocol) (Male Sprague Dawley rats; Sham/MCT rats): consistently completed the exercise protocol

COc1ccccc1Oc1c(NS(=O)(=O)c2ccc(C(C)(C)C)cc2)nc(-c2ncccn2)nc1OCCO [bosentan]
PA pressure [1]: only a modest elevation in PA pressure

CC(=O)CC(c1ccccc1)c1c(O)c2ccccc2oc1=O (stereo not shown) [warfarin]
survival ([2]; Kawut et al., patients also on advanced therapies such as prostacyclin): survival benefit
mortality at 5 years ([2]; Rich et al., prospective observational trial): decreased mortality
